The text below walks through data of US20250163057A1, “DCN-1 MODULATING COMPOUNDS AND METHODS OF USE THEREOF” (Cellarity, Inc., priority 2023, published 2025).

Like-named read-outs stand apart in the source and are kept apart here. Bounds are passed on as bounds.

For assay [1], the target named is DCN1 (DCUND1) protein PONY domain (Homo sapiens (Human), UniProt Q96GG9). Kind of assay: TR-FRET assay, DCN1 binding with FAM-labeled probe. The method in brief:
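First, the E. coli-derived PONY domain was biotinylated and paired with streptavidin Tb cryptate. Compounds in 0.1% DMSO were then added to DCN1 and FAM-probe (5 nM/20 nM, or 0.31 nM/900 nM total with 800 nM unlabelled) in TritonX, 200 mM NaCl buffer. Finally, TR-FRET ratios were recorded at 1, 5 and 24 hrs.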
In general terms: In TR-FRET formats the signal depends on donor and acceptor labels being close together.

For the next assay, the target named is DCN1 protein (Homo sapiens (Human), UniProt Q96GG9). Kind of assay: Intact Protein MS Analysis with the RapidFire-TOF System (covalent adduct formation). Format: binding. Particulars: MS Emax; 400 nM DCN1, 3 hours at room temperature. The method in brief: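 Tag-cleaved human DCN1 (400 nM) expressed in E. coli, in 25 mM Tris-HCl, 200 mM NaCl, 1 mM DTT, was incubated with 11 compound concentrations for 3 h at room temperature and quenched with 0.2% formic acid. Intact-protein Q-TOF MS with deconvolution detected the compound adduct mass.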

The test system of assay [2] is fetal hemoglobin gene HBG1. In words: HBG1 Nanostring Assay in CD34+ HSPC erythroid differentiation culture. Format: cell-based, human. Particulars: for EC50: Homo sapiens, 240 h, HBG1 induction, Day10 of erythroid differentiation; for Nanostring Ymax obs (%): relative to a control compound (C1). The method in brief: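 CD34+ HSPCs were dosed from day −2 (0.1% DMSO) through two-phase erythroid differentiation (EPO, transferrin, SCF, IL-3, insulin; IL-3 removed from day 7) at 37° C, 5% CO2. Day-10 lysates of 100K cells were hybridized at 67° C for 22 h for nCounter counting, normalized to ERCC and housekeeping controls. EC50 and Ymax were derived, with Ymax relative to a control compound.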

The test system of assay [3] is Cullin-3 (CUL3) neddylation. Kind of assay: AlphaLISA assay for Cullin-3 (CUL3) neddylation in TF 1 cells. Format: cell-based. The following applies: Homo sapiens, TF-1, 3 h, 3 hours treatment. The essentials:
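TF 1 cells in unsupplemented IMDM treated with compound concentrations for 3 h, then lysed. CUL3 neddylation detected by AlphaLISA (biotinylated anti-NEDD8, anti-CUL3 acceptor beads overnight, streptavidin donor beads 1 h); normalized to vehicle (0%) and 1 μM DI-1548 (100%), IC50 from Hill fits.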
Background: Alpha assays give light when donor and acceptor beads are brought close together.

Where [4] appears, read: 24 hr after treatment with compound, read-out: TR FRET IC50 24 hr.
The mark [5] stands for this setting: read-out: TR FRET IC50 1 hr, 1 hr after treatment with compound.
[6] abbreviates: TR FRET IC50 1 hr (nM), 1 hr after treatment with compound.

DCN1 (DCUND1) protein PONY domain, sequence (Q96GG9 60-248): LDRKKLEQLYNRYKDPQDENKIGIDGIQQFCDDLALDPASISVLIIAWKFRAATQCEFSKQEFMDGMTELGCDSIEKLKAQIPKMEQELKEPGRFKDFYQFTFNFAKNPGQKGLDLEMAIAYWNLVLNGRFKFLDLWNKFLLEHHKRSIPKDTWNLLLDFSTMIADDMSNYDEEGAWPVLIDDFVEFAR
DCN1 protein, sequence (Q96GG9 whole entry): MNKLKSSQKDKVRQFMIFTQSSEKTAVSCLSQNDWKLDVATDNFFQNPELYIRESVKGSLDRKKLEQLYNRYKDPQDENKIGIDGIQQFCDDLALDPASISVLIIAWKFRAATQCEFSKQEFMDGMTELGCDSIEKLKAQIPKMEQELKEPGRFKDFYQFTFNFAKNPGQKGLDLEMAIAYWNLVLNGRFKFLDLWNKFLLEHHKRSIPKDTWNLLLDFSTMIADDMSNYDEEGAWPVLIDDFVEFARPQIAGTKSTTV

As to `C=C(CN1CCOCC1)C(=O)N[C@H](C)c1nn(-c2ccccc2)c2c1[C@H](c1ccc(F)cc1)[C@H](NC(=O)c1cccc(C(F)(F)F)c1)C(=O)N2CC` (mixture of isomers) [Compound I-8], the IC50 (commonly the concentration that inhibits the measured activity by half) in assay [1] (setting [4]) is no more than 200 nM; in assay [1] (setting [5]), no more than 200 nM; in assay [3], 100 to 1000 nM. Further, the “% Adduct Formation” value on DCN1 protein is “+ (MS Emax % adduct formation greater than or equal to 0.0 and less than or equal to 30.0)”. The EC50 – broadly, the concentration giving half of the maximal effect – in assay [2] was greater than 1000 nM. Also, in assay [2], the “Nanostring Ymax obs (%)” value is “++ (Nanostring Ymax greater than 50.0 and less than or equal to 100.0)”.

Take `C=C(CN1CCOCC1)C(=O)NCc1nn(-c2ccccc2)c2c1[C@@H](c1ccc(F)cc1)[C@H](NC(=O)c1cccc(C(F)(F)F)c1)C(=O)N2CC` (racemic) [Compound I-58]: the half-inhibitory concentration (IC50) in assay [1] (setting [4]) is no more than 200 nM; in assay [1] (setting [5]), no more than 200 nM; in assay [3] it was no more than 100 nM. Besides, on DCN1 protein, the “% Adduct Formation” value was “+ (MS Emax % adduct formation greater than or equal to 0.0 and less than or equal to 30.0)”. Also, in assay [2], the EC50 is greater than 1000 nM. Moreover, in assay [2], the “Nanostring Ymax obs (%)” value is “+ (Nanostring Ymax greater than or equal to 0.0 and less than or equal to 50.0)”.

Consider `CCN1C(=O)[C@@H](NC(=O)c2cccc(C(F)(F)F)c2)[C@@H](c2ccc(F)cc2)c2c(NC(=O)CCl)nn(-c3ccccc3)c21` (racemic) [Compound I-161], for which the IC50 in assay [1] (setting [4]) was no more than 200 nM; in assay [1] (setting [6]), 1000 to 3000 nM; in assay [3] it was no more than 100 nM. Besides, on DCN1 protein, the “% Adduct Formation” value was “+ (MS Emax % adduct formation greater than or equal to 0.0 and less than or equal to 30.0)”. Moreover, the half-maximal effective concentration (EC50) in assay [2] was 100 to 1000 nM. Moreover, in assay [2], the “Nanostring Ymax obs (%)” value is “++ (Nanostring Ymax greater than 50.0 and less than or equal to 100.0)”.

For the molecule `CCN1C(=O)[C@@H](NC(=O)c2cccc(C(F)(F)F)c2)[C@@H](c2ccc(F)cc2)c2c(CNC(=O)CC#N)nn(-c3ccccc3)c21` (racemic) [Compound I-147, rac-N-((4R,5R)-3-((2-cyanoacetamido)methyl)-7-ethyl-4-(4-fluorophenyl)-6-oxo-1-phenyl-4,5,6,7-tetrahydro-1H-pyrazolo[3,4-b]pyridine-5-yl)-3-(trifluoromethyl)benzamide], the values for the half-maximal inhibitory concentration (IC50) in assay [1] (setting [4]), in assay [1] (setting [6]) and in assay [3] were 200 to 1000 nM, 1000 to 3000 nM and 100 to 1000 nM, respectively. The “% Adduct Formation” value at DCN1 protein was “+ (MS Emax % adduct formation greater than or equal to 0.0 and less than or equal to 30.0)”. Besides, the EC50 in assay [2] is greater than 1000 nM. For the same molecule, the “Nanostring Ymax obs (%)” value in assay [2] was “+ (Nanostring Ymax greater than or equal to 0.0 and less than or equal to 50.0)”.

Turning to `CCN1C(=O)[C@@H](NC(=O)c2cccc(C(F)(F)F)c2)[C@@H](c2ccc(F)cc2)c2c(C(=O)N3C[C@H](F)C[C@H]3C#N)nn(-c3ccccc3)c21` (mixture of isomers) [Compound I-273], the values for the half-inhibitory concentration (IC50) in assay [1] (setting [4]), in assay [1] (setting [5]) and in assay [3] were no more than 200 nM, no more than 200 nM and no more than 100 nM, respectively. In addition, the “% Adduct Formation” value on DCN1 protein is “+++ (MS Emax % adduct formation greater than 80.0 and less than or equal to 100.0)”. The “Nanostring Ymax obs (%)” value in assay [2] is reported as “+++ (Nanostring Ymax greater than 100.0)”.

Take `CCN1C(=O)[C@@H](NC(=O)c2cccc(C(F)(F)F)c2)[C@@H](c2ccc(F)cc2)c2c(C(=O)N3CCCC[C@H]3C#N)nn(-c3ccccc3)c21` (mixture of isomers) [Compound I-270]: the IC50 in assay [1] (setting [4]) is no more than 200 nM; in assay [1] (setting [5]), no more than 200 nM; in assay [3] it was no more than 100 nM. Moreover, the “% Adduct Formation” value on DCN1 protein is “+++ (MS Emax % adduct formation greater than 80.0 and less than or equal to 100.0)”. This molecule also came in with a 50% effective concentration (EC50) in assay [2] of 100 to 1000 nM. For the same molecule, in assay [2], the “Nanostring Ymax obs (%)” value was “++ (Nanostring Ymax greater than 50.0 and less than or equal to 100.0)”.

For `CCN1C(=O)[C@@H](NC(=O)c2cccc(C(F)(F)F)c2)[C@@H](C2CC2)c2c(C(=O)N3CC(F)(F)C[C@H]3C#N)nn(C3CCOCC3)c21` [Compound I-378], the IC50 in assay [1] (setting [4]) is no more than 200 nM; in assay [1] (setting [5]), no more than 200 nM; in assay [3], no more than 100 nM. Further, the “% Adduct Formation” value at DCN1 protein was “+++ (MS Emax % adduct formation greater than 80.0 and less than or equal to 100.0)”. The EC50 in assay [2] was no more than 100 nM. Also, the “Nanostring Ymax obs (%)” value in assay [2] was “++ (Nanostring Ymax greater than 50.0 and less than or equal to 100.0)”.

`CCN1C(=O)[C@@H](NC(=O)c2cccc(C(F)(F)F)c2)[C@H](c2ccc(F)cc2)c2c(CNC(=O)C3=C(C(=O)OC)CC3)nn(-c3ccccc3)c21` (racemic) [Compound I-97]: the half-maximal inhibitory concentration (IC50) is 200 to 1000 nM in assay [1] (setting [4]), no more than 200 nM in assay [1] (setting [5]) and no more than 100 nM in assay [3]. The “% Adduct Formation” value on DCN1 protein is “+ (MS Emax % adduct formation greater than or equal to 0.0 and less than or equal to 30.0)”. The concentration giving a half-maximal response (EC50) in assay [2] was in the range of 100 to 1000 nM. For the same molecule, the “Nanostring Ymax obs (%)” value in assay [2] is “++ (Nanostring Ymax greater than 50.0 and less than or equal to 100.0)”.

`CCN1C(=O)[C@@H](NC(=O)c2cccc(C(F)(F)F)c2)[C@@H](c2ccc(F)cc2)c2c(C(=O)N3C[C@H](F)C[C@H]3C#N)nn(C3CCOCC3)c21` [Compound I-360]: the IC50 is no more than 200 nM in assay [1] (setting [4]), no more than 200 nM in assay [1] (setting [5]) and no more than 100 nM in assay [3]. Further, the “% Adduct Formation” value at DCN1 protein is “+++ (MS Emax % adduct formation greater than 80.0 and less than or equal to 100.0)”. This molecule also showed an EC50 in assay [2] of no more than 100 nM. Besides, the “Nanostring Ymax obs (%)” value in assay [2] is listed as “+++ (Nanostring Ymax greater than 100.0)”.

As for `C=C(CC(=O)NCc1nn(-c2ccccc2)c2c1[C@H](c1ccc(F)cc1)[C@H](NC(=O)c1cccc(C(F)(F)F)c1)C(=O)N2CC)C(=O)OC` (racemic) [Compound I-4], the IC50 in assay [1] (setting [4]) is no more than 200 nM; in assay [1] (setting [6]) it was no more than 200 nM; in assay [3], no more than 100 nM. Further, the “% Adduct Formation” value at DCN1 protein was “+++ (MS Emax % adduct formation greater than 80.0 and less than or equal to 100.0)”. Besides, in assay [2], the concentration giving a half-maximal response (EC50) was 100 to 1000 nM. Moreover, in assay [2], the “Nanostring Ymax obs (%)” value is “++ (Nanostring Ymax greater than 50.0 and less than or equal to 100.0)”.

For the molecule `CCN1C(=O)[C@@H](NC(=O)c2cccc(C(F)(F)F)c2)[C@@H](C2CC2)c2c(C(=O)N3CCNC[C@@H]3C#N)nn(C3CCOCC3)c21` (single isomer, unassigned) [Compound I-371], the IC50 in assay [1] (setting [4]) is no more than 200 nM; in assay [1] (setting [6]) it was 200 to 1000 nM; in assay [3], no more than 100 nM. The “% Adduct Formation” value on DCN1 protein was “+++ (MS Emax % adduct formation greater than 80.0 and less than or equal to 100.0)”. The same molecule had an EC50 in assay [2] of 100 to 1000 nM. For the same molecule, in assay [2], the “Nanostring Ymax obs (%)” value was “++ (Nanostring Ymax greater than 50.0 and less than or equal to 100.0)”.

On to `C=C(CN1CCC(F)(F)C1)C(=O)NCc1nn(-c2ccccc2)c2c1[C@H](c1ccc(F)cc1)[C@@H](NC(=O)c1cccc(C(F)(F)F)c1)C(=O)N2CC` (racemic) [Compound I-32], for which the concentration for half-maximal inhibition (IC50) in assay [1] (setting [4]) was no more than 200 nM; in assay [1] (setting [5]) it was no more than 200 nM; in assay [3], no more than 100 nM. For the same molecule, at DCN1 protein, the “% Adduct Formation” value was “+ (MS Emax % adduct formation greater than or equal to 0.0 and less than or equal to 30.0)”. In addition, the EC50 in assay [2] fell in the range of 100 to 1000 nM. For the same molecule, the “Nanostring Ymax obs (%)” value in assay [2] is “++ (Nanostring Ymax greater than 50.0 and less than or equal to 100.0)”.

Consider `CCN1C(=O)[C@@H](NC(=O)c2cccc(C(F)(F)F)c2)[C@@H](c2ccc(F)cc2)c2c(CNC(=O)C3(C#N)CC3)nn(-c3ccccc3)c21` (racemic) [Compound I-37, rac-N-((4R,5R)-3-((1-cyanocyclopropane-1-carboxamido)methyl)-7-ethyl-4-(4-fluorophenyl)-6-oxo-1-phenyl-4,5,6,7-tetrahydro-1H-pyrazolo[3,4-b]pyridine-5-yl)-3-(trifluoromethyl)benzamide], for which the IC50 lay within 1000 to 3000 nM in assay [1] (setting [4]), 1000 to 3000 nM in assay [1] (setting [6]) and 100 to 1000 nM in assay [3]. The “% Adduct Formation” value at DCN1 protein was “+ (MS Emax % adduct formation greater than or equal to 0.0 and less than or equal to 30.0)”. The molecule also had an EC50 in assay [2] greater than 1000 nM. For the same molecule, the “Nanostring Ymax obs (%)” value in assay [2] was “+ (Nanostring Ymax greater than or equal to 0.0 and less than or equal to 50.0)”.

Turning to `CCN1C(=O)[C@@H](NC(=O)c2cccc(C(F)(F)F)c2)[C@@H](c2ccc(F)cc2)c2c(CN3CC=CS3(=O)=O)nn(-c3ccccc3)c21` (racemic) [Compound I-110], the IC50 in assay [1] (setting [4]) lay in the range of 200 to 1000 nM; in assay [1] (setting [6]) it was 200 to 1000 nM; in assay [3], 100 to 1000 nM. Besides, the “% Adduct Formation” value on DCN1 protein is “+ (MS Emax % adduct formation greater than or equal to 0.0 and less than or equal to 30.0)”. The same molecule displayed a concentration for a half-maximal effect (EC50) in assay [2] greater than 1000 nM. Besides, the “Nanostring Ymax obs (%)” value in assay [2] was “+ (Nanostring Ymax greater than or equal to 0.0 and less than or equal to 50.0)”.
